In one experiment the target is T1, KRAS G12D/RAF1 (Homo sapiens, UniProt P01116, G12D).
T1 construct: His6-MBP (N, cleaved yes); made in house; host or cells: E. coli
Put plainly: Protein-protein interaction (PPI) HTRF assay KRAS G12D/RAF1. The format is binding. Conditions: Table 4. An outline of the steps: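 HTRF pairing of His-tagged RAF1 (52-131) plus Tb-cryptate donor with GppNHp-exchanged biotin-RAS (KRAS 1-169 wt/G12D/G12V, NRAS wt) plus streptavidin-d2 acceptor; compound sits 30 min with RAS first, then 1 h RT with RAF1. IC50 derived from 665/615 ratio, untagged RAF1 defining full inhibition.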

Experiment [1] deals with GP2D cells (KRAS G12D), phospho-ERK. Nature of the experiment: pERK In Cell Western (ICW) assay, GP2D cells. The note with it: Table 4, 3 hours. Type of experiment: cell-based. How it is done: pERK ICW is a high throughput screening assay to evaluate the cellular potency of mutant KRAS small molecule inhibitors. KRAS mutant cell lines AGS and GP2D (KRAS^G12D) were purchased from ATCC and maintained respectively in RPMI and DMEM medium supplemented with 10% fetal bovine serum and Penicillin/Streptomycin.
Cells grown in exponential phase were trypsinized, resuspended in fresh media, and viable cells were counted using a cell counter with Trypan Blue (BioRad TC20). Cells were seeded into 384-well plate (Greiner 781091) at density of 5,000 cells/well for AGS and 10,000 cells/well for GP2D and allowed to grow overnight in a 37° C. CO2 incubator. The next day, compounds were dispensed into wells with a ½ log, 10-point serial dilution and top concentration of […] using Tecan D300e dispenser and incubated for 3 hours in a 37° C. CO2 incubator. Cells were then fixed with paraformaldehyde (Electron Microscopy Sciences, 15710, 4% final concentration) for 30 min, permeabilized with wash buffer (1×PBS+0.1% Triton X-100) for 30 min and blocked with Odyssey blocking buffer (Li—COR 927-70001) for 1 hour, all at room temperature (RT). Phospho-ERK antibody (CST 4370L) was diluted 1:500 in Odyssey blocking+0.2% Tween 20 and incubated with cells overnight at 4° C. The next day, plates were washed 5× with wash buffer, incubated with IRDye 800 CW, Goat anti-Rabbit secondary antibody (Li—COR 926-32211, 1:500) and DRAQ5 (CST 4084L, 1:5,000) diluted in Odyssey blocking+0.2% Tween 20 for 1 hour, washed 5×, and imaged on an Odyssey CLx imaging system.
For data analysis, signal intensities from 800 (phosphor-ERK) and 700 (DRAQ5) channels were extracted, and phospho-ERK signals were normalized to DRAQ5 signals for each well and percent of DMSO control values were computed. Data were then imported into Graphpad Prism to compute half-maximal inhibitory concentrations (IC50) using a 4-parameter variable slope model. Z-factor for each plate was computed from signals derived from wells treated with either DMSO or […] of Trametinib. AGS pERK ICW (Method B) IC50 (uM) values of selected compounds are depicted in Table 2 with compounds having a value 0.001 uM to 0.01 uM as ++++; >0.01 uM to 0.1 uM as +++; >0.1 uM to 1 uM as ++; 1 uM to 10 uM as + and >10 uM as NA.

Each structure is given as a SMILES string.

In general, IC50 refers to the concentration that inhibits the measured activity by half. Read a high IC50 as weaker potency.

T1 sequence (P01116 with tags, fused parts or gaps isoform P01116-2 G12D): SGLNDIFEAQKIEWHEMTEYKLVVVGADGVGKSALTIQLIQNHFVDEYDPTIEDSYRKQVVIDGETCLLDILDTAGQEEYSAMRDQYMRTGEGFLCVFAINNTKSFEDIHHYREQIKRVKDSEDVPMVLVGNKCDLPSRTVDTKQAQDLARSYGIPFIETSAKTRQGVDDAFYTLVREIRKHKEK

Turning to `N#Cc1c(N2C[C@H]3CC[C@@H](C2)N3)nc(OC[C@@]23CCCN2C[C@H](F)C3)nc1N1CC2(CCc3sc(N)c(C#N)c32)C1` [Compound 25, 2-amino-1′-[5-cyano-6-(3,8-diazabicyclo[3.2.1]octan-3-yl)-2-[[(2R,8S)-2-fluoro-1,2,3,5,6,7-hexahydropyrrolizin-8-yl]methoxy]pyrimidin-4-yl]spiro[5,6-dihydrocyclopenta[b]thiophene-4,3′-azetidine]-3-carbonitrile], the IC50 is 100 to 1000 nM against KRAS G12D/RAF1 and 1 to 10 nM in experiment [1].

In the case of `N#Cc1c(N2CCCC(O)CC2)nc(OC[C@@]23CCCN2C[C@H](F)C3)nc1N1CC2(CCc3sc(N)c(C#N)c32)C1` (stereo partly drawn) [Compound 40, 2-amino-1′-[5-cyano-6-(4-hydroxyazepan-1-yl)-2-[[(2R,8S)-2-fluoro-1,2,3,5,6,7-hexahydropyrrolizin-8-yl]methoxy]pyrimidin-4-yl]spiro[5,6-dihydrocyclopenta[b]thiophene-4,3′-azetidine]-3-carbonitrile], the half-inhibitory concentration (IC50) against KRAS G12D/RAF1 lay in the range of 1000 to 10000 nM; in experiment [1], 100 to 1000 nM.

`N#Cc1c(N2C[C@H]3CC[C@@H](C2)N3)nc(OCC2(CN3CCOCC3)CC2)nc1N1CC2(C=CCc3sc(N)c(C#N)c32)C1` [Compound 86, 2-amino-1′-[5-cyano-2-[[1-(morpholinomethyl)cyclopropyl]methoxy]-6-[(1R,5S)-3,8-diazabicyclo[3.2.1]octan-3-yl]pyrimidin-4-yl]spiro[7H-benzothiophene-4,3′-azetidine]-3-carbonitrile]: the figures for the IC50 (at KRAS G12D/RAF1; in experiment [1]) were less than 100 nM and 1 to 10 nM, respectively.

In the case of `Cn1c(-c2nn3c(c2Cl)CN(c2nc(OC[C@@]45CCCN4C[C@H](F)C5)nc(N4CC5(CCc6sc(N)c(C#N)c65)C4)c2C#N)CCC3)nc2ccccc21` [Compound 30], the IC50 against KRAS G12D/RAF1 was 10000 to 100000 nM; in experiment [1], 10 to 100 nM.

In the case of `N#Cc1c(N2C[C@H]3CC[C@@H](C2)N3)nc(OCC2(CN3CC[S+]([O-])CC3)CC2)nc1N1CC2(CCc3sc(N)c(C#N)c32)C1` [Compound 71, 2-amino-1′-[5-cyano-6-[(1R,5S)-3,8-diazabicyclo[3.2.1]octan-3-yl]-2-[[1-[(1-oxo-1,4-thiazinan-4-yl)methyl]cyclopropyl]methoxy]pyrimidin-4-yl]spiro[5,6-dihydrocyclopenta[b]thiophene-4,3′-azetidine]-3-carbonitrile], the IC50 lay within 1000 to 10000 nM at KRAS G12D/RAF1 and 100 to 1000 nM in experiment [1].

Consider `CN(C)C(=O)c1nn2c(c1Cl)CN(c1nc(OCC3(CN4CCOCC4)CC3)nc(N3CC4(CCc5sc(N)c(C#N)c54)C3)c1C#N)CCC2` [Compound 5, 5-[6-(2-amino-3-cyano-spiro[5,6-dihydrocyclopenta[b]thiophene-4,3′-azetidine]-1′-yl)-5-cyano-2-[[1-(morpholinomethyl)cyclopropyl]methoxy]pyrimidin-4-yl]-3-chloro-N,N-dimethyl-4,6,7,8-tetrahydropyrazolo[1,5-a][1,4]diazepine-2-carboxamide], for which the IC50 on KRAS G12D/RAF1 was 1000 to 10000 nM; in experiment [1], 1 to 10 nM.

For the compound `N#Cc1c(N2C[C@H]3CC[C@@H](C2)N3)nc(OCC2(CN3CCOCC3)CC2)nc1N1CC2(C1)c1c(sc(N)c1C#N)CC2F` (stereo partly drawn) [Compound 101, 2-amino-1′-[5-cyano-6-[(1R,5S)-3,8-diazabicyclo[3.2.1]octan-3-yl]-2-[[1-(morpholinomethyl)cyclopropyl]methoxy]pyrimidin-4-yl]-5-fluoro-spiro[5,6-dihydrocyclopenta[b]thiophene-4,3′-azetidine]-3-carbonitrile], the IC50 against KRAS G12D/RAF1 lay within 100 to 1000 nM; in experiment [1], 1 to 10 nM.

For the compound `Cc1nc(-c2nn3c(c2Cl)CN(c2nc(OC[C@@]45CCCN4C[C@H](F)C5)nc(N4CC5(CCc6sc(N)c(C#N)c65)C4)c2C#N)CCC3)no1` [Compound 46, 2-amino-1′-[6-[3-chloro-2-(5-methyl-1,2,4-oxadiazol-3-yl)-4,6,7,8-tetrahydropyrazolo[1,5-a][1,4]diazepin-5-yl]-5-cyano-2-[[(2R,8S)-2-fluoro-1,2,3,5,6,7-hexahydropyrrolizin-8-yl]methoxy]pyrimidin-4-yl]spiro[5,6-dihydrocyclopenta[b]thiophene-4,3′-azetidine]-3-carbonitrile], the IC50 at KRAS G12D/RAF1 was in the range of 1000 to 10000 nM; in experiment [1], 10 to 100 nM.

On to `CN(C)C(=O)c1nn2c(c1Cl)CN(c1nc(OC[C@@]34CCCN3C[C@H](F)C4)nc(N3CC4(CCc5sc(N)c(C#N)c54)C3)c1C#N)CC(F)(F)C2` [Compound 91, 5-[6-(2-amino-3-cyano-spiro[5,6-dihydrocyclopenta[b]thiophene-4,3′-azetidine]-1′-yl)-5-cyano-2-[[(2R,8S)-2-fluoro-1,2,3,5,6,7-hexahydropyrrolizin-8-yl]methoxy]pyrimidin-4-yl]-3-chloro-7,7-difluoro-N,N-dimethyl-6,8-dihydro-4H-pyrazolo[1,5-a][1,4]diazepine-2-carboxamide], for which the values for the IC50 (at KRAS G12D/RAF1; in experiment [1]) were 100 to 1000 nM and 10 to 100 nM, respectively.

As for `CN(C)CC(F)(F)COc1nc(N2C[C@H]3CC[C@@H](C2)N3)c(C#N)c(N2CC3(CCc4sc(N)c(C#N)c43)C2)n1` [Compound 26, 2-amino-1′-[5-cyano-6-(3,8-diazabicyclo[3.2.1]octan-3-yl)-2-[3-(dimethylamino)-2,2-difluoro-propoxy]pyrimidin-4-yl]spiro[5,6-dihydrocyclopenta[b]thiophene-4,3′-azetidine]-3-carbonitrile], the IC50 against KRAS G12D/RAF1 was 10000 to 100000 nM; in experiment [1], 100 to 1000 nM.

As to `N#Cc1c(N2CC3COCC(C2)N3)nc(OC[C@]23CCCN2C[C@@H](F)C3)nc1N1CC2(CCc3sc(N)c(C#N)c32)C1` [Compound 43, 2-amino-1′-[5-cyano-2-[[(2S,8R)-2-fluoro-1,2,3,5,6,7-hexahydropyrrolizin-8-yl]methoxy]-6-(3-oxa-7,9-diazabicyclo[3.3.1]nonan-7-yl)pyrimidin-4-yl]spiro[5,6-dihydrocyclopenta[b]thiophene-4,3′-azetidine]-3-carbonitrile], the IC50 was in the range of 1000 to 10000 nM on KRAS G12D/RAF1 and 100 to 1000 nM in experiment [1].

As for `Cn1nccc1COc1nc(N2C[C@H]3CC[C@@H](C2)N3)c(C#N)c(N2CC3(CCc4sc(N)c(C#N)c43)C2)n1` [Compound 97, 2-amino-1′-[5-cyano-2-[(2-methylpyrazol-3-yl)methoxy]-6-[(1R,5S)-3,8-diazabicyclo[3.2.1]octan-3-yl]pyrimidin-4-yl]spiro[5,6-dihydrocyclopenta[b]thiophene-4,3′-azetidine]-3-carbonitrile], the IC50 on KRAS G12D/RAF1 lay within 10000 to 100000 nM; in experiment [1], 100 to 1000 nM.

`CN(C)C(=O)c1nn2c(c1Cl)CN(c1nc(OC[C@@]34CCCN3C[C@H](F)C4)nc(N3CC4(CCCCc5sc(N)c(C#N)c54)C3)c1C#N)CCC2` [Compound 10, 5-[6-(2-amino-3-cyano-spiro[5,6,7,8-tetrahydrocyclohepta[b]thiophene-4,3′-azetidine]-1′-yl)-5-cyano-2-[[(2R,8S)-2-fluoro-1,2,3,5,6,7-hexahydropyrrolizin-8-yl]methoxy]pyrimidin-4-yl]-3-chloro-N,N-dimethyl-4,6,7,8-tetrahydropyrazolo[1,5-a][1,4]diazepine-2-carboxamide]: the values for the IC50 (on KRAS G12D/RAF1; in experiment [1]) were 1000 to 10000 nM and 10 to 100 nM, respectively.

Consider `N#Cc1c(N2C[C@H]3CC[C@@H](C2)N3)nc(OCC2(CN3CCOCC3)CC2)nc1N1CC2(CCc3sc(N)c(C#N)c32)C1` [Compound 4, 2-amino-1′-[5-cyano-2-[[1-(morpholinomethyl)cyclopropyl]methoxy]-6-[(1R,5S)-3,8-diazabicyclo[3.2.1]octan-3-yl]pyrimidin-4-yl]spiro[5,6-dihydrocyclopenta[b]thiophene-4,3′-azetidine]-3-carbonitrile], for which the figures for the concentration for half-maximal inhibition (IC50) (against KRAS G12D/RAF1; in experiment [1]) were less than 100 nM and 1 to 10 nM, respectively.

Regarding `Cn1c(-c2cc3n(n2)CCCN(c2nc(OC[C@@]45CCCN4C[C@H](F)C5)nc(N4CC5(CCc6sc(N)c(C#N)c65)C4)c2C#N)C3)nc2ccccc21` [Compound 29, 2-amino-1′-[5-cyano-6-[2-(1-methylbenzimidazol-2-yl)-4,6,7,8-tetrahydropyrazolo[1,5-a][1,4]diazepin-5-yl]-2-[[(2R,8S)-2-fluoro-1,2,3,5,6,7-hexahydropyrrolizin-8-yl]methoxy]pyrimidin-4-yl]spiro[5,6-dihydrocyclopenta[b]thiophene-4,3′-azetidine]-3-carbonitrile], the IC50 on KRAS G12D/RAF1 fell in the range of 10000 to 100000 nM; in experiment [1] it was 100 to 1000 nM.

The record behind these values is patent publication US12145947B2, “Pyrimidine based modulators and uses thereof” (Quanta Therapeutics, Inc., priority 2022, dated 2024).
